Assay results published in publication PMC5937091, “Efficacy of Alpha Glucosidase Inhibitor from Marine Actinobacterium in the Control of Postprandial Hyperglycaemia in Streptozotocin (STZ) Induced Diabetic Male Albino Wister Rats” (Iranian Journal of Pharmaceutical Research : IJPR, 2018).
≈ marks a conversion by molar mass, not a printed value.

Target: T1, mammalian α-glucosidase (rat α-glucosidase; rat-intestinal acetone powder)
T1 construct: gene Si; crude soluble supernatant of sonicated rat-intestinal acetone powder (Sigma-Aldrich); native, not purified
Test: colorimetric inhibition assay, absorbance at […] nm
Assay type: biochemical
Conditions: substrate p-nitrophenyl α-D-glucopyranoside, phosphate buffer pH 6.8, 37 °C (as in screening protocol); mode printed both as competitive and as non-competitive

Compound CN1C(=O)C(CCl)N(C(=O)OC(C)(C)C)C1C(C)(C)C (stereo not shown) [2-t-butyl-5-chloromethyl-3-methyl-4-oxoimidazolidine-1-carboxylic acid, t-butyl ester] has an IC50 of 32.08 µg/mL (≈ 105 µM).
